Tests used:
ELP1 exon 20 [1] = settings: cited from earlier work
ELP1 exon 20 [2] = settings: cited from earlier work; remark: listed apart in the source
CFTR channel = experiment: CFTR functional assessment, short circuit current (Ussing chamber) in CFBE cells stably expressing c.2988G>A; format: cell-based, human; settings: CFBE c.2988G>A, Compound (I) treated cells, 10 μM ivacaftor acute, apical side
Description: WT CFTR-EMG-i14-i18, CFTR-EMG-i14-i18 harboring c.2988G>A, Flp-In-CFBE, and Flp-In-293 cells stably expressing WT-EMG and c.2988G>A EMG were generated. Both Flpin-293 and Flp-In-CFBE cells lack endogenous CFTR expression (CFBE41o-) and contain a single Flp recombinase target site. Co-transfection of EMG plasmid with pOG44 (a plasmid encoding Flp recombinase) allowed for genomic integration at the FRT site. Hygromycin was used for stable cell selection.
Assessment of CFTR channel function and response to Compound (I) was performed in CFBEs stably expressing c.2988G>A. Briefly, CFBE stable cell lines were plated on snapwell filters. When transepithelial resistance reached ˜200Ω (˜ 5-7 days) as measured using Voltammeter (Physiologic Instruments), cells were treated with Compound (I) at varying doses (0.3 μM to 10 μM) for next 3 days. Filters were mounted in Ussing chambers (Physiological Instruments). A high chloride solution was added to the basolateral chamber and a low chloride solution was added to the apical chamber. After equilibration of currents, 10 μM forskolin (Selleckchem) was added to the basolateral side to activate CFTR channels via cAMP signaling. Currents were allowed to plateau, followed by acute addition of 10 μM ivacaftor at apical side for CFTR potentiation (Selleckchem). Inhibition of CFTR was performed using 10 μM Inh-172 (Selleckchem) added to the apical chamber.
The ability of Compound (I) to rescue chloride channel function was also assessed. CF bronchial epithelial (CFBE) cell lines was generated to stably express the splicing mutation c.2988G>A. Cells were grown in monolayers on filters and treated with increasing doses of Compound (I) (0.3 μM-10 μM) or DMSO for 3 days. Chloride channel function was assessed by measuring short circuit current (Isc) on treated CFBE cells. Forskolin was added to initiate CFTR channel activity via cAMP-mediated signaling, with further channel activation by Ivacaftor and inhibition with Inh-172, a CFTR-specific inhibitor (FIG. 9C, representative Isc tracing). CFTR-specific change in current (ΔIsc±SD) allows for measurement of chloride channel function (FIG. 9C). […] Significant recovery of CFTR function (˜3 fold) was observed following treatment with Compound (I) at 1, 3, 6, and 10 μM for 3 days, with a maximal increase in CFTR function achieved using 3 μM of Compound (I) (ΔIsc=37.168±4.32 μA/cm^2, FIG. 9C).

| Structure (SMILES) | doses needed to achieve inclusion of Exon 20 in vivo (ELP1 exon 20 [1]) | Percent Spliced In (PSI) change for ELP1 exon 20 splicing (ELP1 exon 20 [2]; RNA sequencing after kinetin treatment) | additional exon-usage differences in response to kinetin (ELP1 exon 20 [2]; RNA sequencing) | usage differences that induced skipping of the middle exon (ELP1 exon 20 [2]; RNA sequencing) | usage differences that promoted inclusion of the middle exon (ELP1 exon 20 [2]; RNA sequencing) | improvement in CFTR function on acute addition of Ivacaftor (CFTR channel) [fold] |
| --- | --- | --- | --- | --- | --- | --- |
| c1coc(CNc2ncnc3nc[nH]c23)c1 [kinetin, 6-furfurylaminopurine] | extremely high doses are necessary | 0.57 | 42 | 31 | 11 | – |
| CC(C)(C)c1cc(C(C)(C)C)c(NC(=O)c2c[nH]c3ccccc3c2=O)cc1O [Ivacaftor, reference compound] | – | – | – | – | – | ~2 |

Source: patent US20230047208A1, “RNA Splicing Modulation” (The General Hospital Corporation, priority 2020, published 2023)
